Measurements published in PubChem BioAssay AID1996.
Values after ≈ are worked out from the molar mass of the structure shown.

details: buffer; pH 7.4; 200.0 µM

| SMILES | solubility kinetic [µg/mL] |
| --- | --- |
| COc1ccc(NC(=O)c2cncn2-c2ccccc2)cc1 | 42.6 (≈ 145 µM) |
| Cn1cccc1C(=O)OCC(=O)N1CCN(c2ccccc2)CC1 | 48.7 (≈ 149 µM) |
| CC(CN1C(C)CCCC1C)OC(=O)c1ccccc1Cl (stereo not drawn) | > 46.5 |
| O=C1NC(=O)C(=Cc2ccc(-c3ccccc3[N+](=O)[O-])o2)C(=O)N1 | 44.2 (≈ 135 µM) |
| Cc1ccnc(SCC(=O)NC2CCCCCC2)n1 | 33 (≈ 118 µM) |
| CCOc1ccc(NS(=O)(=O)c2csc(C(N)=O)c2)cc1 | 46 (≈ 141 µM) |
| COc1ccc2occ(C(=O)c3ccc(N)cc3)c2c1 | 1.7 (≈ 6.36 µM) |
| COc1ccc(OC)c(C(=O)/C=C/c2cccnc2)c1 | > 40.4 |
| Cc1cccc(OCC(=O)NCCNC(=O)c2cnccn2)c1 | 46.5 (≈ 148 µM) |
| Nc1nc(Cl)cc(=O)n1Cc1ccc(Cl)cc1 | 28.1 (≈ 104 µM) |
| O=C(COc1ccc(Cl)cc1Cl)N1CCNC1=O | 31 (≈ 107 µM) |
| COc1cccc2c1OC1(CCN(C(C)C)CC1)N1N=C(c3cccnc3)CC21 (stereo not drawn) | > 58.9 |
| CC1CN(S(=O)(=O)c2cccc(C(=O)NCCc3ccc(S(N)(=O)=O)cc3)c2)CC(C)O1 (stereo not drawn) | > 72.2 |
| CC(NC(=O)C(=O)Nc1nccs1)c1ccccc1 (stereo not drawn) | 35.4 (≈ 129 µM) |
| CCO.C[C@H]1c2cccc(O)c2C(O)=C2C(=O)[C@]3(O)C(O)=C(C(N)=O)C(=O)[C@@H](N(C)C)[C@@H]3[C@@H](O)[C@@H]21.Cl.O | > 76.9 |
| Cc1nc2ccccc2cc1C(=O)Nc1ccccc1Cl | 6.7 (≈ 22.6 µM) |
| O=C(CSc1ncn[nH]1)NCCc1ccc(Cl)cc1 | > 44.5 |
| COc1ccc(OC)c(NC(=O)Nc2cnccn2)c1 | 3.3 (≈ 12 µM) |
| COc1ccc(Cl)cc1NC(=O)NN1CCN(C)CC1 | > 44.8 |
| CCN(CC)C(=O)CN1C(=O)/C(=C/c2ccccc2)SC1=S | 2.5 (≈ 7.47 µM) |
| O=C1CCCc2ccccc2N1Cc1ccc(F)cc1 | 30 (≈ 111 µM) |
| CN(Cc1ccc(N(C)C)cc1)C(=O)c1cc2ccccc2o1 | 31.5 (≈ 102 µM) |
| O=C(Cc1ccccc1)c1c[nH]c(C(=O)C(Cl)(Cl)Cl)c1 | 28.1 (≈ 85 µM) |
| COc1cc(N)c(Cl)cc1C(=O)OCC(=O)N1c2ccccc2NC(=O)C1(C)C | 5.5 (≈ 13.2 µM) |

| SMILES | solubility kinetic [µg/mL] |
| --- | --- |
| Cc1ccc(-c2ccc(C(=O)NCCCNC(=O)c3cnccn3)o2)cc1Cl | 6.3 (≈ 15.8 µM) |
| COc1ccc(N2C(=O)CCC2=O)c(OC)c1 | 33.8 (≈ 144 µM) |
| Cc1c(/C=N/O)sc2ccccc12 | 10.8 (≈ 56.5 µM) |
| O=C(COC(=O)C1CC2CCCC(C1)C2=O)NC1CCCCC1 (stereo not drawn) | > 48.2 |
| COCCNc1ncnc2c1[nH]c1ccccc12 | 36.2 (≈ 149 µM) |
| Cc1ccc(N2CC(=O)N(c3ccc(C)cc3)CC2=O)cc1 | 8.6 (≈ 29.2 µM) |
| CC(CN(C)C)CN1c2ccccc2CCc2ccccc21.O=C(O)/C=C\C(=O)O (stereo not drawn) | > 61.6 |
| CC(C)(C)NC(=O)CSc1nc2ccccc2c(=O)[nH]1 | 30.9 (≈ 106 µM) |
| CC1(C)CC(=O)C(N=Nc2cccnc2)=C(O)C1 | > 36.8 |
| O=C(CN1C(=O)NC2(CCc3ccccc32)C1=O)c1cccs1 (stereo not drawn) | > 49 |
| Cn1c(N)c(C(=O)COC(=O)/C=C/c2ccc(Cl)cc2Cl)c(=O)n(C)c1=O | 2.9 (≈ 7.03 µM) |
| CC1CCN(CCc2nc3cc(NC(=O)C(C)C)ccc3n2C)CC1 | 36.7 (≈ 107 µM) |
| COc1ccc(O)c(C(=O)c2cnc3c(c2)CN(C)C(=O)N3)c1 | 8 (≈ 25.5 µM) |
| Cc1onc(-c2c(F)cccc2Cl)c1C(=O)c1ccccc1O | 2.6 (≈ 7.84 µM) |
| CN(CC(=O)Nc1ccc(N2CCOCC2)cc1)C(=O)c1ccc(CS(C)(=O)=O)cc1 | > 66.8 |
| CCOc1ccccc1NC(=O)NCCCCc1ccccc1 | < 0.3 |
| CCCN1CNc2c(c(=O)[nH]c(=S)n2-c2ccccc2Cl)C1 | > 50.5 |
| Cc1c(O)nc2sc3ccccc3n2c1=O | 31.3 (≈ 135 µM) |
| CCN(CC)CCCNC(=O)c1cc(-c2ccc3c(c2)OCO3)on1 | 49.4 (≈ 143 µM) |
| COC(=O)CN=Cc1c(O)n(-c2ccc(Cl)cn2)c(=O)c2ccccc12 | > 55.8 |
| O=[N+]([O-])c1ccc(Nc2cccc(F)c2)nc1 | 13.4 (≈ 57.5 µM) |
| CCOc1cc(N2CCOCC2)c(OCC)cc1NC(=O)C(C)Oc1ccccc1 (stereo not drawn) | 43.6 (≈ 105 µM) |
| COC(=O)c1cnc[nH]1 | > 18.9 |
| Cc1[nH]c2ccccc2c1C(=O)C(=O)N1CCC2(CC1)OCCO2 | > 49.3 |

| SMILES | solubility kinetic [µg/mL] |
| --- | --- |
| CCNC(=O)c1ccccc1CCc1ccccc1 | 32.7 (≈ 129 µM) |
| COc1ccccc1N1CCN(C(=O)CSc2nnc(C)n2C2CC2)CC1 | > 58.1 |
| Cc1cccc(-c2nc(C)cc(=O)[nH]2)c1 | > 30 |
| COc1ccc2c(c1)C(=C(C#N)C#N)C(=O)N2CCc1ccccc1 | 3.4 (≈ 10.3 µM) |
| Cn1ccsc1=NC(=O)c1ccc([N+](=O)[O-])o1 | 18.4 (≈ 72.7 µM) |
| OCCN1c2ccccc2CCc2ccccc21 | 21.5 (≈ 89.8 µM) |
| CC(C)C(NC(=O)c1ccccc1)C(=O)N1CCCCCC1 (stereo not drawn) | > 45.4 |
| OC1CCN(CC(O)C(F)(F)F)CC1 (stereo not drawn) | > 32 |
| Cc1cc(Br)cc2c1NC(=O)C2(O)CC(=O)c1ccco1 (stereo not drawn) | 47.7 (≈ 136 µM) |
| COc1ccc(-c2cc(C(=O)Nc3ccc(C)c(C)c3)no2)cc1 | < 0.3 |
| O=C(Nc1cccc(Br)c1)C1CCCC1 | > 40.2 |
| COc1ccc(NC(=S)Nc2ccc(N(C)C(C)=O)cc2)cc1 | > 49.4 |
| CCC(C)NC(=O)c1cc(-c2ccc3c(c2)OCO3)on1 (stereo not drawn) | 3 (≈ 10.4 µM) |
| O=C(O)C1C2CCC(CC2)C1C(=O)N1CCN(Cc2ccc(F)cc2)CC1 (stereo not drawn) | > 56.2 |
| Cc1ccc(-n2sc3ccccc3c2=O)cc1 | 9.2 (≈ 38.1 µM) |
| CCC(C)c1ccc(NC(=S)NCc2ccccn2)cc1 (stereo not drawn) | 38.5 (≈ 129 µM) |
| Cc1nc(NC(=O)COC(=O)[C@@H](NC(=O)c2ccco2)C(C)C)c(Cl)cc1Cl | > 64.2 |
| O=C(COC(=O)c1ccc(Br)c(S(=O)(=O)N2CCOCC2)c1)NC1CC1 | > 67.1 |
| O=C(c1cc(F)c(F)cc1Cl)N1CCCc2ccccc21 | 30.3 (≈ 98.5 µM) |
| COc1ccccc1NC(=O)C1CCOC1=O (stereo not drawn) | > 35.3 |
| Cc1cccc(-c2noc(CN(C)C(=O)c3ccoc3C)n2)c1 | 40.9 (≈ 131 µM) |
| NS(=O)(=O)c1cccc(NC(=O)c2cccs2)c1 | > 42.3 |
| CN(NC(=O)c1ccccc1F)c1ccc([N+](=O)[O-])cn1 | > 43.5 |
| COc1ccccc1CNC(=O)CS(=O)(=O)Cc1ccccc1 | 41.4 (≈ 124 µM) |

| SMILES | solubility kinetic [µg/mL] |
| --- | --- |
| Cc1ccc(C(=O)c2coc3ccc(O)c(CN(C)C)c23)cc1.Cl | 48 |
| Cn1c(-c2ccc(Cl)nc2)nc2ccccc21 | > 36.6 |
| COc1ccc(Cl)cc1NC(=O)C(C)N1CCc2ccccc21 (stereo not drawn) | 1.1 (≈ 3.33 µM) |
| COc1ccc(-c2cc(C(=O)Nc3ccccc3F)on2)cc1 | < 0.3 |
| O=c1oc2c(O)cccc2cc1-c1nc2ccccc2[nH]1 | 1.1 (≈ 3.95 µM) |
| CN1C(=O)CSC1=Nc1ccc(F)cc1 | 28.7 (≈ 128 µM) |
| O=C(O)CNC(=O)/C(=C\c1ccco1)NC(=O)c1ccco1 | > 45.6 |
| C=CCn1c(SCC(N)=O)nc2nc3c(cc2c1=O)COC(C)(C)C3 | 46.6 (≈ 129 µM) |
| O=C(O)Cc1c(-c2ccccc2)c2cc(Br)ccc2[nH]c1=O | 50.2 (≈ 140 µM) |
| CC1(C)OCC(COC(=O)Nc2cccnc2)([N+](=O)[O-])CO1 | 39.8 (≈ 128 µM) |
| COc1c(C(=O)Nc2ccc(Br)cn2)ccc2ccccc12 | < 0.4 |
| CC(O)c1nc2ccccc2n1C(C)c1ccccc1 (stereo not drawn) | > 40 |
| COc1ccccc1OCCn1c(SCC(N)=O)nc2ccccc21 | 45.4 (≈ 127 µM) |
| Cc1ccc(C(=O)Nc2scc(-c3ccccc3)c2C(=O)O)cc1 | > 50.6 |
| C/C(=N\NC1=NCCN1)c1ccc(N)c([N+](=O)[O-])c1 | > 39.3 |
| COc1cc(OC)cc(C(=O)NCCCCc2ccccc2)c1 | 1.3 (≈ 4.15 µM) |
| Cc1cc2c(SCC(=O)NCC3CCCO3)ncnc2s1 (stereo not drawn) | > 48.5 |
| Cl.Clc1ccccc1CSC1=NCCN1 | > 39.5 |
| Cc1ccc(NC(=O)COC(=O)C2=NNC(=O)CC2)c(Br)c1 | > 55.2 |
| CCCC1(CCC)NC(=O)N(CC(=O)N2CCc3ccccc32)C1=O | > 51.5 |
| Cc1ccc(NC(=O)COC(=O)c2ccc3c(c2)OCO3)c(C)c1 | < 0.7 |
| COc1ccc(NC(=S)NC(=O)/C=C/c2ccco2)c(OC)c1 | < 0.4 |
| CCOC(=O)c1csc(NC(=O)c2cc(=O)c3ccccc3o2)n1 | 11.5 (≈ 33.4 µM) |
| O=C(COC(=O)c1cc(F)cc(F)c1)NCCCc1ccccc1 | 3.7 (≈ 11.1 µM) |

| SMILES | solubility kinetic [µg/mL] |
| --- | --- |
| COc1ccc(CC(C)NCCc2ccc(OC)c(OC)c2)cc1 (stereo not drawn) | 48.7 (≈ 148 µM) |
| O=[N+]([O-])c1ccc(NS(=O)(=O)c2cccc3cccnc23)cc1 | 1.9 (≈ 5.77 µM) |
| Cc1ccc2c(c1)N(CC(=O)Nc1ccccc1F)C(=O)CO2 | 0.7 (≈ 2.23 µM) |
| O=c1cc(Cl)[nH]c(=O)n1Cc1ccccc1 | > 35.5 |
| COc1cc2c(cc1OC)CN(Cc1ccc(F)cc1)CC2 | 35.7 (≈ 118 µM) |
| CC(C)CC1C2C(=O)N(c3ccccc3)C(=O)C2ON1c1ccccc1 (stereo not drawn) | 27.7 (≈ 79 µM) |
| CCCCOc1ccc(C2(C)NC(=O)NC2=O)cc1 (stereo not drawn) | 31.2 (≈ 119 µM) |
| CC(C)Cc1nc(N2CCNCC2)c(C#N)c2c1CCC2 | 41.1 (≈ 145 µM) |
| Cc1ccc(C(=O)Nc2ccc3c(c2)OCO3)cc1Cl | < 0.6 |
| CCCCc1c(O)c2cccc3c2n(c1=O)CCC3 | 35.2 (≈ 137 µM) |
| CC(C(=O)NC(C)(C)C)N1C(=O)c2cccc3cccc(c23)C1=O (stereo not drawn) | 40.2 (≈ 124 µM) |
| Cl.OC(c1ccccc1)C(CN1CCOCC1)c1ccccc1 (stereo not drawn) | > 50.1 |
| O=C(NC1CCS(=O)(=O)C1)c1ccc(Br)s1 (stereo not drawn) | > 48.6 |
| Cc1ccc2c(c1)/C(=C/c1ccccc1F)C(=O)N2 | 1.3 (≈ 5.13 µM) |
| CCn1c(SCC(=O)Nc2nccs2)nnc1C1CC1 | > 46.4 |
| CCC1C(C#N)=C(SCC(N)=O)NC2=C1C(=O)CC(C)(C)C2 (stereo not drawn) | 46.9 (≈ 147 µM) |
| Cn1c(SCC(=O)O)nc2sc3c(c2c1=O)CCC3 | > 44.5 |
| COc1ccc2c([N+](=O)[O-])c(N3CCCC3)[nH]c2c1 | 37.7 (≈ 144 µM) |
| Cc1nc([N+](=O)[O-])cn1CC(=O)Nc1ccc([N+](=O)[O-])cc1 | 1.3 (≈ 4.26 µM) |
| COc1ccc2c(c1)c(CC[NH3+])c(C)n2Cc1ccccc1.[Cl-] | 44.5 |
| CNc1snc(C)c1C(=O)OC(C)C(=O)Nc1ccc(F)cc1 (stereo not drawn) | > 50.6 |
| CCCn1c2ccccc2c2cnn(CC(=O)NCCOC)c(=O)c21 | > 51.4 |
